Measured values taken from patent US20210128596A1, “COMPOSITIONS AND METHODS FOR TREATING SEPTIC CARDIOMYOPATHY” (UNIVERSITY OF PENNSYLVANIA, priority 2017, published 2021).

Tests used:
[1] = system: cardiac tissue isolated from septic mice; test: Autophagy markers (LC3BII/LC3BI, Map1lc3b, BNIP3) in cardiac tissue; type: in vivo, mouse
Experimental: (§1) RNA purification and gene expression analysis—Total RNA was purified from AC16 cells or hearts using the TRIzol reagent according to the instructions of the manufacturer (Invitrogen). DNase-treated RNA was used for cDNA synthesis using the ProtoScript II First Strand cDNA Synthesis Kit (New England Biolabs). Quantitative real-time PCR was performed with the Sybr Select Master Mix (Applied Biosystems). Incorporation of the SYBR green dye into the PCR products was monitored with the Applied Biosystems StepOnePlus Real-Time PCR System. Samples were normalized against mouse 36B4 or human rps13 RNA.
Protein purification and analysis—Isolated heart tissue or AC16 cells were homogenized in radioimmune precipitation assay buffer containing protease and phosphatase inhibitors (Pierce Protease and Phosphatase Inhibitor Mini Tablets, Thermo Scientific). 30-50 μg of total protein extract was applied to SDS-PAGE and transferred onto nitrocellulose membranes.

C57BL/6 mice = test: Echocardiography after cecal ligation and puncture (CLP) or sham surgery; type: in vivo, mouse; parameters: LVID; d / EF / FS / LV Mass / LV Mass (Corrected) / LV Vol; d / IVS; d: unit not given here
Experimental: Mice were either sham treated or subjected to cecal ligation puncture (CLP). SDG was administered either 2 hours prior to CLP or 6 hours following CLP. Echocardiograms from each group of mice was collected (FIG. 2A) and ejection fraction (EF, left) and fractional shortening (FS, right) was determined.
Animal care, cecal ligation and puncture procedure and echocardiography—Animal protocols were approved by the Temple University Institutional Animal Care and Use Committee and were carried out in accordance with the NIH guidelines for the care and use of laboratory animals. Wild type (WT) 8-12 week old C57BL/6 mice were purchased from Jackson labs. Cecal ligation and puncture (CLP) was performed as previously described. Mice were anesthetized with 3.5% inhaled isofluorane. Under aseptic conditions, a 1 to 2 cm midline laparotomy was performed and exposure of the cecum with adjoining intestine. The cecum was tightly ligated at its base below the ileo-cecal valve at a distance of lcm and was punctured twice with a 19-gauge needle. The length of the ligated cecum was defined as the distance from the distal end of cecum to ligation point, which affects the degree of disease severity. Fecal material was extruded from the punctured cecum, and it was returned to the peritoneal cavity. The peritoneum and the skin were closed with three sutures. The mice were resuscitated by injecting subcutaneously lml of pre-warmed 0.9% saline solution to induce the hyperdynamic phase of sepsis and for post-operative analgesia the mice received subcutaneously buprenorphine (0.05 mg·kg body weight). Mice received a single intraperitoneal injection of LGM2605 (100 mg/kg i.p.) that was administrated either 2 h prior to CLP or 6 h post CLP. At 12 h post CLP, two-dimensional echocardiography was performed on anesthetized mice (1.5% inhaled isoflurane) using a VisualSonics Vevo 2100 machine. Echocardiographic images were recorded in a digital format. A single observer blinded to the respective treatments of mice analyzed short-axis m-mode images by LV trace. The number of mice used for each experiment are mentioned in the figure legends.

[2] = system: adult cardiomyocytes isolated from septic mice; test: Mitotracker Red staining of adult cardiomyocytes isolated from septic mice; type: in vivo, mouse; conditions: adult cardiomyocytes isolated 12 hours post-CLP
Experimental: Adult mouse cardiomyocytes isolation-Adult mouse cardiomyocytes (ACMs) were isolated from ventricles of C57BL/6 mice 12 hours post-sham surgery, CLP surgery or combined performance of CLP and treatment with LGM2605 at 6 hours post-surgery. Hearts from heparinized mice (90 USP; ip) were cannulated through the aorta. Hearts were perfused with perfusion buffer (120.4 mMNaCl, 14.7 mM KCL, 0.6 mM NaH2PO4, 0.6 mM KH2PO4, 1.2 mM MgSO4, 10 mM Hepes, 4.6 mM NaHCO3, 30 mMtaurine, 10 mM BDM, 5.5 mM glucose; pH 7.4) for 3 min followed by digestion with perfusion buffer containing 19250 units Collagenese type II (Worthington), 5-6 mg trypsin and 0.02 mM CaCl2 for 7 min. Ventricles were gently […] into small pieces, perfusion buffer containing 5 mg/ml BSA and 0.125 mM CaCl2 was added and filtered with 100 μm nylon. The filtrate was pelleted by gravity for 5 min, centrifuged for 30 sec at 700 rpm and the pellet resuspended in perfusion buffer containing 5 mg/ml BSA and 0.225 mM CaCl2. The cells were pelleted by gravity for 10 min, centrifuged for 30 sec at 700 rpm and the pellet resuspended in perfusion buffer containing 5 mg/ml BSA and 0.525 mM CaCl2. […] Mitotracker Red fluorescence was recorded at 581 (excitation) and 644 nm (emission).

AC16 cells = test: cAMP levels in AC16 cells; type: cell-based, human
Experimental: AC16 cells were either left unstimulated or stimulated with either forskolin or isoproterenol for 12 hours and then treated with SDG, Liposaccharide (LPS) or both.
Cell culture—A human ventricular cardiomyocyte-derived cell line, designated AC-16, was used for some in vitro experiments. Cells were maintained in Dulbecco's modified Eagle's medium-nutrient mixture F-12 (DMEM-F-12; Invitrogen, Carlsbad, Calif.).

[3] = system: ventricular tissue of septic mice; test: Antioxidant-related gene expression in ventricular tissue; type: in vivo, mouse; conditions: ventricular tissue 12 hours after CLP
Experimental: as §1

[4] = CLP + LGM2605 (6 hr), 100 mg/kg i.p. 6 h post CLP, echo 12 h post CLP
[5] = CLP + LGM2605 (−2 hr), 100 mg/kg i.p. 2 h prior to CLP, echo 12 h post CLP
[6] = Sham + LGM2605 (6 hr), 100 mg/kg i.p., echo 12 h post-surgery

## COc1cc(C[C@@H](CO[C@@H]2O[C@H](CO)[C@@H](O)[C@H](O)[C@H]2O)[C@H](CO[C@@H]2O[C@H](CO)[C@@H](O)[C@H](O)[C@H]2O)Cc2ccc(O)c(OC)c2)ccc1O [LGM2605, secoisolariciresinol diglucoside]
[1]; cardiac tissue from septic mice
  autophagy markers (LC3BII/LC3BI ratio; Map1lc3b and BNIP3 mRNA): Neither marker was alleviated by LGM2605
[1]; septic mice following LGM2605 administration
  expression of the mitochondrial damage marker BNIP3: trend for reduced expression of the mitochondrial damage marker BNIP3
C57BL/6 mice; [4]
  EF: 72.7
  FS: 41.3
  IVS; d: 1.4
  IVS; s: 1.8
  LV Mass: 129.2
  LV Mass (Corrected): 103.3
  LV Vol; d: 30.2
  LV Vol; s: 8.4
  LVID; d: 2.8
  LVID; s: 1.6
  LVPW; d: 1.1
  LVPW; s: 1.6
C57BL/6 mice; [5]
  EF: 71.7
  FS: 39.3
  IVS; d: 1.3
  IVS; s: 1.6
  LV Mass: 97.2
  LV Mass (Corrected): 77.8
  LV Vol; d: 18.6
  LV Vol; s: 5.3
  LVID; d: 2.3
  LVID; s: 1.4
  LVPW; d: 1.1
  LVPW; s: 1.5
C57BL/6 mice; LGM2605 100 mg/kg i.p. 2 h prior to CLP or 6 h post-CLP
  CLP-mediated cardiac dysfunction: prevented CLP-mediated cardiac dysfunction
C57BL/6 mice; SDG 100 mg/kg body weight, i.p., 6 hours post-CLP surgery
  cardiac fractional shortening: increased cardiac fractional shortening
C57BL/6 mice; SDG 2 hours prior to CLP or 6 hours following CLP
  ejection fraction (EF) and fractional shortening (FS): restores EF and to pre-CLP levels
C57BL/6 mice; [6]
  EF: 66.7
  FS: 36.4
  IVS; d: 1.1
  IVS; s: 1.5
  LV Mass: 146.7
  LV Mass (Corrected): 117.4
  LV Vol; d: 55.4
  LV Vol; s: 17.9
  LVID; d: 3.6
  LVID; s: 2.3
  LVPW; d: 1.0
  LVPW; s: 1.4
C57BL/6 mice; septic mice treated with LGM2605
  systolic function: normal systolic function
[2]
  mitochondrial abundance (Mitotracker staining): prevents CLP-associated reduction in mitochondrial abundance
[2]; listed as SDG
  mitochondrial abundance (Mitotracker staining): restored mitochondrial abundance in vitro and in vivo
AC16 cells; SDG in the presence of LPS
  cAMP levels: this increase was abolished in the presence of LPS
AC16 cells; in the presence of forskolin or isoproterenol
  cAMP levels: appears to be insignificant
AC16 cells; non-stimulated, 12 hours
  cAMP levels: increased cAMP levels
[3]
  cardiac expression of antioxidant genes (NRF2, HO1, GSTM1, NQO1, UCP2, UCP3): not accompanied by prevention of the CLP-mediated changes in cardiac expression of antioxidant genes
